Structures can show the parent of a compound that is named as a salt.
Key:
[1] = test system: SCAD; test: Chemical screening with the SCAD (Scar-in-a-Dish) assay; type: cell-based, mice; settings: 2.5 μM final concentration
From the text: Dorsal skins were collected from C57BL/6J or En1^Cre;R26^mTmG or En1^e;R26^VT2/GK3 mice at different ages as indicated, and washed twice with cold DMEM/F12 (Thermo Fisher Scientific 11320074) medium to remove contaminating blood, and washed once with Hank's Balanced Salt Solution (HBSS, Thermo Fisher Scientific 14175095). After careful removal of non-skin tissue at the ventral side with a surgical scalpel, round full-thickness skin pieces were created with disposable Ø 2 mm biopsy punch (Stiefel 270130), and cultured in 300 μl of DMEM/F12 medium containing 10% FBS, 1× GlutaMAX (Thermo Fisher Scientific 35050038), 1× Penicillin/streptomycin (Thermo Fisher Scientific 15140122), and 1× MEM non-essential amino acids (Thermo Fisher Scientific 11140035) in each well of 96-well plates in a humidified 37° C., 5% CO2 incubator. (Note: the 2 mm skin pieces were cultured in medium but not floating at the liquid air surface). Fresh medium was supplied every second day and the skin tissues were harvested at the indicated time points (day 1 to day 5 after culture), with the fresh tissues serving as day 0 control, and fixed in 2% PFA for overnight at 4° C.
D0 SCADs (see Example 2) were first treated with Nefopam from Prestwick chemical library (FDA approved library). The initial concentration of the chemical in library format is 1 mM, dissolved in DMSO. The final concentration of chemical used in FDA-library is 2.5 μM.
All chemicals in the library are the same (1 mM), and they are added by a robot, eg. 0.5 μl chemical per well of 200 μl culture to make 2.5 μM final concentration. SCAD biopsies were prepared in 96-well plate with 200 μl per well, the automated system was used to add the chemical Nefopam.
All the data were compiled on excel sheets and scores were added based on the visual variability observed when compared to the DMSO and media control D5 SCADs.
The chemical Nefopam was selected (see Example 7) and further analyzed on SCAD (see Example 2). The treatment was done in triplicates.

[2] = test system: scar formation; settings: stated as known; inhibitor of scar development; cited from earlier work

CN1CCOC(c2ccccc2)c2ccccc2C1 (stereo not shown) [Prestw-229, Nefopam hydrochloride]
collagen formation in SCAD sections ([1]; D5 SCAD sections, compared to control SCAD): significantly less | scar formation in the whole-mount image ([1]; D5 SCAD, 96-well plate, triplicates, compared to control (media treated) SCAD): visually less scar formation | scar development ([1]; D5 SCAD, FIG. 7): visible reduction of scar development | scar formation (known effect, positive control) [2]: known to reduce scar formation

Reference: patent US20210096127A1, “MEANS AND METHODS FOR MONITORING SCAR DEVELOPMENT” (HELMHOLTZ ZENTRUM MÜNCHEN - DEUTSCHES FORSCHUNGSZENTRUM FÜR …, priority 2018, published 2021)
